Paper PMC3160846 (PLoS ONE, 2011)

How the values were obtained:
Aurora-A = molecular target: T1, Aurora-A (Homo sapiens, UniProt O14965); assay: In vitro kinase inhibition assay, Aurora-A; type: biochemical; conditions: recombinant GST-tagged Aurora-A, 37°C, 90 min
T1 construct: GST-tagged Aurora-A (residues S123-S401) containing kinase domain; GST; made in house; host or cells: Sf9 insect cells
Experimental: Aurora-A and Aurora-B kinase - The recombinant GST-tagged Aurora-A (residues S123-S401) containing kinase domain was expressed in Sf9 insect cells. The recombinant full length His-tagged Aurora-B (residues M1∼A344) was purchased from Invitrogen (PV3970). The kinase assay were carried out in 96-well plates with the tested compound at either 37°C (Aurora-A) for 90 min or 30°C (Aurora-B) for 120 min.
Composition of the reaction buffers used in different kinase inhibitory assays is described in Figure S3.
50 mM Tris-HCl pH 7.4, 10 mM NaCl, 10 mM MgCl2, 0.01% BSA, 5 mM ATP, 1 mM DTT and […] tetra(LRRASLG) peptide, and either 150 ng recombinant Aurora-A or 40 ng recombinant Aurora-B.

[1] = system: human cervical carcinoma KB xenografts; assay: KB xenograft in nude mice; type: in vivo; conditions: for decrease in tumor volume: day 30, BPR1K653 15 mg/kg or VX680 30 mg/kg i.p.
Experimental: Under in vivo conditions, tumors were dissected from the euthanized mice and instantly stored under −80°C. Tumor tissue sections were prepared from the use of cryostats (Leica Microsystems, Buffalo Grove, IL), and subsequently fixed with ice-cold methanol. Tissue sections were stained by the TUNEL reagent using Fluorescent (green) In-Situ Apoptosis Detection Kit (catalog number #11684795910, Roche Diagnostic, Mannheim, Germany). Cells were counterstained with DAPI to detect nucleus, and examined by fluorescence microscopy. Amount of green fluorescence labeled (DNA fragmented) cells were counted and percentage of apoptotic cells were calculated as follows: Amount of green fluorescence labeled cells ÷ Total cells available×100. Experiments were repeated independently at least two times.
Male nude mice (5–6-weeks-old) were purchased from the National Laboratory Animal Centre (Taiwan R.O.C.). The animals were s.c. implanted with 5×10^5 KB cells or 1×10^6 KB-VIN10 cells mixed with equal volume of Matrigel (Becton Dickinson) in 0.1 mL at one flank per mouse via a 22-gauge needle. Tumor growth was examined twice a week after implantation, and the volume of tumor mass was measured with an electronic caliper and calculated as 1/2×length×width^2 in mm^3.
BPR1K653 was dissolved completely in a vehicle mixture of DMSO/cremophor/saline (1∶2∶7). Selected dose of BPR1K653 was decided base on the following conditions: 1/2 of the dosage that caused noticeable body weight loss (>10%) in the treated mice during toxicity study. […] The control group (5 mice) was treated with vehicle mixture only. Tumor size and animal body weight were measured every three days after drug treatment. Toxicity was evaluated based on the body weight reduction. At the end of the experiments (tumor size of the control >2000 mm^3), animals were euthanized with carbon dioxide.
Tumors were harvested and instantly stored at −80°C. Frozen cryostat sections were fixed with ice-cold methanol for 10 min. After washing with PBS, endogenous peroxidase was blocked using 3% hydrogen peroxide in TBS for 5 min. Immunostaining process was carried out according to the user's manual of the ABC Peroxidase Staining Kit (Pierce Biotechnology, Rockford, IL). Briefly, the tissues were incubated with a protein-blocking solution for 20 min, and subsequently stained with an anti-phosphorylated Histone H3 (Ser10) polyclonal antibody for 1 hour at room temperature. Then, the samples were incubated with the ABC reagent for 30 min, and subsequently incubated with the metal enhanced DAB substrate. The sections were counterstained with hematoxylin.

KB-VIN10 cells = assay: Western blot of Histone H3 phosphorylation and cyclin B1, KB-VIN10; type: cell-based, Human; conditions: for Histone H3 phosphorylation and cyclin B1 expression: KB-VIN10, 48 h, BPR1K653 12, 24, 36 nM, VX680 170 and 255 nM
Experimental: Cells were lysed with ice-cold lysis buffer (10 mM Tris, 1 mM EDTA, 1 mM DTT, 60 mM KCl, 0.5% NP-40 and protease inhibitors). […] The resolved proteins were electrophoretically transferred to PVDF membranes (Amersham Life Science, Amersham, U.K.) for Western blot analysis. The membranes were blocked with 5% non-fat milk at room temperature for two hours, washed twice with TBST (1% Tween) and then incubated with either anti-phosphorylated Aurora-A/-B/-C kinase antibody (#2914S, Cell Signaling Technology, Danvers, MA), anti-Aurora-A and -B kinase antibody (#ab1287 and #ab2254, Abcam, Cambridge, MA), anti-phosphorylated Histone H3 antibody (#9701, Cell Signaling Technology, Danvers, MA), anti-Histone H3 antibody (#9715, Cell Signaling Technology, Danvers, MA), anti-Cyclin B1 antibody or anti-Actin antibody (#sc-245 and #sc-130065, Santa Cruz Biotechnology, Santa Cruz, CA) overnight at 4°C. Membranes were washed twice with TBST then subsequently incubated with a horseradish peroxidase-conjugated secondary antibody (Santa Cruz Biotechnology, Santa Cruz, CA) for 1 hour at room temperature. Immunoreactivity was detected by Enhanced Chemiluminescence (Amersham International, Buckingham, U.K.) and autoradiography. Experiments were repeated independently at least two times.

T1 sequence (O14965 123-401): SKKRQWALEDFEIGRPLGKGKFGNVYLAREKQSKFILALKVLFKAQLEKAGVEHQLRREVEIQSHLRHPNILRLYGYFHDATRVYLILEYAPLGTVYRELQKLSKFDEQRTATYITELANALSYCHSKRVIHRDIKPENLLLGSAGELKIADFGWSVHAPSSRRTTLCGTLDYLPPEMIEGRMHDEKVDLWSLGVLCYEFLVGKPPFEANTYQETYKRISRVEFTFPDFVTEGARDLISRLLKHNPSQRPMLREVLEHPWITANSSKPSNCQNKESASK

| IC50 (Aurora-A) | loss of body weight after treatment ([1]; 15 mg/kg i.p., 5 days/week for 2 weeks, vs control group) | Structure (SMILES) | phosphor-Histone H3 positive cells present in tumor tissues ([1]; 15 mg/kg i.p., 24 h after second administration, control 60%) | apoptotic cells present in the tumor tissue (TUNEL) ([1]; 15 mg/kg i.p., 12 days post-treatment, control 7%) | decrease in tumor volume ([1]; 5 days/week for 2 weeks) | Histone H3 phosphorylation and cyclin B1 expression (KB-VIN10 cells) | Histone H3 phosphorylation and cyclin B1 expression, with verapamil (KB-VIN10 cells; KB-VIN10, + verapamil 10 µM) |
| --- | --- | --- | --- | --- | --- | --- | --- |
| 124 nM | less than 10% | CN(C)Cc1ccccc1NC(=O)Nc1ccc(CCNc2ncnc3oc(-c4ccccc4)c(Cl)c23)cc1 [BPR1K653] | 10% | 55% | ~73% | inhibition of Histone H3 phosphorylation and down-regulation of cyclin B1 expression |  |
|  |  | Cc1cc(Nc2cc(N3CCN(C)CC3)nc(Sc3ccc(NC(=O)C4CC4)cc3)n2)[nH]n1 [VX680] |  |  | ~68% | could not induce the above molecular changes | restore the sensitivity to VX680 |
